Earlier results as cited in EP0916677A1, “METHOD FOR SEARCHING FOR PEPTIDES AND PROCESS FOR PRODUCING COMPOUNDS” (YAMANOUCHI PHARMACEUTICAL CO., LTD., priority 1996, dated 1998).

Molecular target: T1, trypsin (Bos taurus, UniProt P00760)
T1 sequence (P00760 24-246): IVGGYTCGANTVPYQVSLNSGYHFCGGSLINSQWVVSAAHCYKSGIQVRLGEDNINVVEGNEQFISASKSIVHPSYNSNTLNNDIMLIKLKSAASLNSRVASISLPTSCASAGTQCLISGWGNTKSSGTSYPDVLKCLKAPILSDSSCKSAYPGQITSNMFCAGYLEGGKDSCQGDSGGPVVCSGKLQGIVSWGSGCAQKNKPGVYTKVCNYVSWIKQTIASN
Conditions: known from Eichler et al., Biochemistry, 1993, 32, 11035

Ac-TTKIFT-NH2 [TTKIFT, Ac-TTKIFT-NH2]
trypsin inhibitory activity: high
